The source of these data is ChEMBL document CHEMBL1201862, “PubChem BioAssay data set” (2004).

Where a name gives a salt, the structure may show the parent alone. Active and inactive are the calls of the source.

Experiment [1] is described as follows: HEK-293T cell viability reduction – luminescence, B-cell screen hits, cytotoxicity control for BCR NF-kB inhibitor project, dose response (AID 489021).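 Further: HEK-293T cells carrying an NF-kB luciferase reporter; cells exposed to compound for about 14 hours before viability readout.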 In kind it is functional, cell-based.
Experiment [2] concerns the target Melanin-concentrating hormone receptor 1 (Homo sapiens, UniProt Q99705). Nature of the experiment: Late-stage fluorescence-based counterscreen for antagonists of the G-protein coupled receptor 7 (GPR7): cell-based dose response assay to identify antagonists of the melanin-concentrating hormone receptor 1 (MCHR1). [Related pubchem assays (depositor defined):AID1861, AID1880, AID1952, AID2148, AID2251, AID2257, AID485339]. It counts as functional.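 Further: stimulated with 30 nM MCH peptide agonist.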

Experiment [3] deals with T1, Orexin/Hypocretin receptor type 1 (Homo sapiens, UniProt O43613).
T1 sequence (O43613 whole entry): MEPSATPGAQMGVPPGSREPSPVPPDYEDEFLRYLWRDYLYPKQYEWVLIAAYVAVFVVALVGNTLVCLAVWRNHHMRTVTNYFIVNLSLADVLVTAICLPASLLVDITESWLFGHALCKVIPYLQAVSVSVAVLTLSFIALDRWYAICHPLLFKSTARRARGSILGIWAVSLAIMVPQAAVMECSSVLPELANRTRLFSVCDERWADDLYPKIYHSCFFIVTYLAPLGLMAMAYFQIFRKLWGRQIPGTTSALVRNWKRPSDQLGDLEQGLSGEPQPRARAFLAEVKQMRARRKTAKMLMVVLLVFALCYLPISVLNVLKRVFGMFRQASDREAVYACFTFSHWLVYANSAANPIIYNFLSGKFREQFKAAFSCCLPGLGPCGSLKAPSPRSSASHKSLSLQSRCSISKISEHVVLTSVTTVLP
Nature of the experiment: Fluorescence-based cell-based high throughput dose response assay for antagonists of the orexin 1 receptor (OX1R; HCRTR1). [Related pubchem assays (depositor defined):AID434989, AID435008, AID463079, AID485270, AID492963, AID492964, AID492965, AID493232, AID504717, AID504718]. In kind it is functional.

Experiment [4] is described as follows: Counterscreen for antagonists of the orexin 1 receptor (OX1R; HCRTR1): Fluorescence-based cell-based high throughput dose response assay to identify antagonists of the parental CHO cell line. [Related pubchem assays (depositor defined):AID434989, AID435008, AID463079, AID485270, AID492963, AID492964, AID492965, AID493232, AID504699, AID504701]. In kind it is functional.

The test system of another experiment is CHO-K1. Nature of the experiment: Counterscreen for antagonists of the orexin 1 receptor (OX1R; HCRTR1): Homogeneous time resolved fluorescence (HTRF)-based cell-based dose response assay to identify antagonists of the parental CHO-K1 cell line. [Related pubchem assays (depositor defined):AID434989, AID435008, AID463079, AID485270, AID492963, AID492964, AID492965, AID493232, AID504699, AID504701]. In kind it is functional. The note with it: Cricetulus griseus.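 Further: potency for inhibition of ATP-stimulated IP1 production as antagonists.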

For experiment [5], the target named is T1, Orexin/Hypocretin receptor type 1. Nature of the experiment: Homogeneous Time Resolved Fluorescence (HTRF)-based cell-based high throughput dose response assay for antagonists of the orexin 1 receptor (OX1R; HCRTR1). [Related pubchem assays (depositor defined):AID434989, AID435008, AID463079, AID485270, AID492963, AID492964, AID492965, AID493232, AID504717, AID504718]. In kind it is functional.

Experiment [6] is described as follows: Luminescence Cell-Based Dose Retest to Confirm Inhibitors of Cancer Stem Cells. [Related pubchem assays (depositor defined):AID2717, AID2721]. It counts as functional. The note with it: Homo sapiens.
For a further experiment, the target named is T2, Bcl-2-related protein A1 (Mus musculus, UniProt Q07440).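 Further: confirmatory dose–response counterscreen on Bfl-1, used to check hits from a UBC13 polyubiquitin inhibitor campaign.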
T2 sequence (Q07440 whole entry): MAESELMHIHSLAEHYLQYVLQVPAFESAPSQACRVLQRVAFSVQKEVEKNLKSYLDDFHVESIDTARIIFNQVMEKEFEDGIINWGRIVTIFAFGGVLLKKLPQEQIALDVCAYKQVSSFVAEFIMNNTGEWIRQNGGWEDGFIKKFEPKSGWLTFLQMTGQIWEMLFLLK
In kind it is functional.

For experiment [7], the target named is T3, Ubiquitin-conjugating enzyme E2 N (Homo sapiens, UniProt P61088).
T3 sequence (P61088 whole entry): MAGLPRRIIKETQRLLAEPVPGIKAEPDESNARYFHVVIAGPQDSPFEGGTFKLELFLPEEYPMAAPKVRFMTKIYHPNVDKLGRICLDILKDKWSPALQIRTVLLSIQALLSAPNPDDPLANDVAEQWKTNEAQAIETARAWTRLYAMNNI
It counts as functional.

The target of experiment [8] is T3, Ubiquitin-conjugating enzyme E2 N. It counts as functional. This is another data set of the same source.
Experiment [9] in a line: viability loss in HeLa cells – cytotoxicity control for MgcRacGAP inhibitor project, dose response (AID 624300). It counts as functional.
Experiment [10] concerns the target T4, Rac GTPase-activating protein 1 (Homo sapiens, UniProt Q9H0H5).
T4 sequence (Q9H0H5 whole entry): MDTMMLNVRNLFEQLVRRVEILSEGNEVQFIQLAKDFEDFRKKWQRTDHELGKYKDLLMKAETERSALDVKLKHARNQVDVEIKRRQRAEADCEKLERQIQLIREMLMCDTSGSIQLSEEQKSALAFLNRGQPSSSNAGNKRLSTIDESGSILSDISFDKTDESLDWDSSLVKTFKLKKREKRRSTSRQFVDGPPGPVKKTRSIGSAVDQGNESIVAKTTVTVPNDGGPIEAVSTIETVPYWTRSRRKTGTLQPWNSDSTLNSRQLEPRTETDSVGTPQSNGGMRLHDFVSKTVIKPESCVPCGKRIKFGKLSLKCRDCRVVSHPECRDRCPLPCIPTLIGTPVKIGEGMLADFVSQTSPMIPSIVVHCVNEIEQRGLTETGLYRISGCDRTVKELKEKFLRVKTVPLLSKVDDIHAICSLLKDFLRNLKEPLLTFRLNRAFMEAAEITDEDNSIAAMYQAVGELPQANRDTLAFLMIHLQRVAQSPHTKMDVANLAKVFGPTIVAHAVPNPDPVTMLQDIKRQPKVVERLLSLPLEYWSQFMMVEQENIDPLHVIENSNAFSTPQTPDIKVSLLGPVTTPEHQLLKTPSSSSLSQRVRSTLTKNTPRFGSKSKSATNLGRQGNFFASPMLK
Nature of the experiment: blockers of MgcRacGAP-driven Rac1 GTP hydrolysis – biochemical, ADP Hunter fluorescence, primary and confirmatory, confirmation (AID 624330). It counts as functional.
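Wherever AC50 is given: cells exposed to compound for roughly 70 hours or longer before luminescence read.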

Melanin-concentrating hormone receptor 1, sequence (Q99705 whole entry): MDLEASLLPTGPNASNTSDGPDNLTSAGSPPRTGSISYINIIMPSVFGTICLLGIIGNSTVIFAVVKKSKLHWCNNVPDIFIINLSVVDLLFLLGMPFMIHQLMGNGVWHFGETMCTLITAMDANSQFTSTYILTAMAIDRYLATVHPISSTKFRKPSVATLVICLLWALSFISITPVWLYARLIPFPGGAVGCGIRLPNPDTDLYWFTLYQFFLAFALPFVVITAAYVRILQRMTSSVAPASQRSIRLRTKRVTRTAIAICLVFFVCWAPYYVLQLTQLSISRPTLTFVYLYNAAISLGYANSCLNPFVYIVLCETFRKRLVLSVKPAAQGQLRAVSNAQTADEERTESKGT

`Cc1ccc(C(=O)CSc2nnc(COc3ccccc3)o2)cc1`: the IC50 in [1] was > 80 µM (inactive).

With `COc1ccc(Oc2c(Cl)cnn(-c3ccc(C(C)(C)C)cc3)c2=O)cc1`, the IC50 in experiment [2] was 2.7 µM (active).

With `COc1ccc(Oc2c(-c3cccs3)cnn(-c3ccc(C)cc3)c2=O)cc1`, the IC50 in [2] was > 20 µM (inactive).

Regarding `CN(Cc1c(C(=O)N/N=C/c2cccc(O)c2)nnn1-c1nonc1N)c1ccccc1`, the IC50 was 5.74 µM (active) in [3], 24.2 µM (inactive) in experiment [4], > 66.2 µM (inactive) in the experiment on CHO-K1 and 1.04 µM (active) in experiment [5].

As for `O=C(c1ccc(OCCN2CCCCC2)cc1)c1c(-c2ccc(O)cc2)sc2cc(O)ccc12` [RALOXIFENE HYDROCHLORIDE], the AC50 in experiment [6] is 1.75 µM (active). Besides, the IC50 on Bcl-2-related protein A1 is > 20 µM (inactive); in [7], 17.5 µM (active); in experiment [8], 14.2 µM (active); in [10], 27.8 µM (active). Further, the CC50 in [9] was 99.6 µM (active).
